Structures are written as SMILES. Bounds are passed on as bounds.

Test [1] has as its target T1, CSF-1R kinase (Homo sapiens, UniProt P07333).
T1 construct: made in house; host or cells: T7 phage display or HEK-293 cells
As to the kind of experiment: Competition binding assay, CSF-1R Kd. An outline of the steps: (§1)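 Kinases, either T7 phage fusions or HEK-293-expressed and DNA-tagged, competed for immobilised biotinylated affinity ligand against test compound, 1 h at RT in binding buffer with 6 mM DTT. Bound kinase eluted with 0.5 μM free ligand and quantified by qPCR; Kd from 11-point threefold dilutions.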

The target in test [2] is kinase panel containing either 359 or 386 distinct kinases. In words: Selectivity score S10 from competition binding against a panel of kinases. The conditions noted are these: compounds at 10 μM; for Kinase specificty: S(10)-359 panel: panel of 359 distinct kinases; for Kinase specificty: S(10)-386 panel: panel of 386 distinct kinases. In short, it runs like this:
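Compounds were tested at 10 μM in competition binding against T7 phage-fused or HEK-293-expressed DNA-tagged kinases with immobilized affinity ligands, 1 h at room temperature. Bound kinase was quantified by qPCR as percent of DMSO control; S10 is the fraction of distinct kinases (mutants excluded) with POC below 10.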

Test [3] concerns the target T2, KIT kinase (Homo sapiens, UniProt P10721).
T2 construct: made in house; host or cells: T7 phage display or HEK-293 cells
In words: Competition binding assay, KIT Kd. An outline of the steps: as §1

The test system of test [4] is MV4-11 cells. In words: MV4-11 cell proliferation assay (Alamar Blue). The conditions noted are these: Homo sapiens, MV4-11, 72 h, 3 days incubation. Format: cell-based. In short, it runs like this: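 Viability readout: Alamar Blue fluorescence, ex 560/em 590 nm, 3 h after reagent addition, after 3-day exposure of 64,000 MV4-11 cells per well to a 9-point half-log compound series in 0.5% FBS Iscove's. IC50 from duplicate averages, as 50% proliferation inhibition relative to negative control.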

In test [5] the target is T3, FLT3 kinase (Homo sapiens, UniProt P36888).
T3 construct: made in house; host or cells: T7 phage display or HEK-293 cells
T3 sequence (P36888 27-993): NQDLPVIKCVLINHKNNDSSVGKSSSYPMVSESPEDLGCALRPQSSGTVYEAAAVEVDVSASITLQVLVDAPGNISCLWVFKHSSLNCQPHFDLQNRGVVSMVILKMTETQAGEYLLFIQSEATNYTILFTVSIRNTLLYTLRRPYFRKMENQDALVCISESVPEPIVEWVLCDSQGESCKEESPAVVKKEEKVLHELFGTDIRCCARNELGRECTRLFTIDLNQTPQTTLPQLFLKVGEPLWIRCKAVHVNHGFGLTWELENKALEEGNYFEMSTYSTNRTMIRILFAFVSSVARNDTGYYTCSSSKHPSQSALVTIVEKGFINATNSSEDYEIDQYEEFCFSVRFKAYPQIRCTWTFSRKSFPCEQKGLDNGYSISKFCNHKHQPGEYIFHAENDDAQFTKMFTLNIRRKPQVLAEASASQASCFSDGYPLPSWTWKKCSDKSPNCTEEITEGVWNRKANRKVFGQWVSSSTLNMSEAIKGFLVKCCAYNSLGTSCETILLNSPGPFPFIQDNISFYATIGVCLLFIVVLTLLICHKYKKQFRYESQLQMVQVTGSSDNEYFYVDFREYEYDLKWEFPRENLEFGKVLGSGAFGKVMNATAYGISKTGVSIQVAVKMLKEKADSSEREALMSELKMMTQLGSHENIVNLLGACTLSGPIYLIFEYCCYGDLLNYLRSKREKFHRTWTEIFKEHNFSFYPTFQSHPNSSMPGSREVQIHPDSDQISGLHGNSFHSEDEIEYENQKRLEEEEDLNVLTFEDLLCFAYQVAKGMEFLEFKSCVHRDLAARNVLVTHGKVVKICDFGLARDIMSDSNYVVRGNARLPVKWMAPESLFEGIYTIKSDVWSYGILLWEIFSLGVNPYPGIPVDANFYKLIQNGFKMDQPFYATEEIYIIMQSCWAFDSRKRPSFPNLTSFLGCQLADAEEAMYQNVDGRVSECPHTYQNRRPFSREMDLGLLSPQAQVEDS
In words: Competition binding assay, FLT3 Kd. In short, it runs like this: as §1

T2 sequence (P10721 26-976): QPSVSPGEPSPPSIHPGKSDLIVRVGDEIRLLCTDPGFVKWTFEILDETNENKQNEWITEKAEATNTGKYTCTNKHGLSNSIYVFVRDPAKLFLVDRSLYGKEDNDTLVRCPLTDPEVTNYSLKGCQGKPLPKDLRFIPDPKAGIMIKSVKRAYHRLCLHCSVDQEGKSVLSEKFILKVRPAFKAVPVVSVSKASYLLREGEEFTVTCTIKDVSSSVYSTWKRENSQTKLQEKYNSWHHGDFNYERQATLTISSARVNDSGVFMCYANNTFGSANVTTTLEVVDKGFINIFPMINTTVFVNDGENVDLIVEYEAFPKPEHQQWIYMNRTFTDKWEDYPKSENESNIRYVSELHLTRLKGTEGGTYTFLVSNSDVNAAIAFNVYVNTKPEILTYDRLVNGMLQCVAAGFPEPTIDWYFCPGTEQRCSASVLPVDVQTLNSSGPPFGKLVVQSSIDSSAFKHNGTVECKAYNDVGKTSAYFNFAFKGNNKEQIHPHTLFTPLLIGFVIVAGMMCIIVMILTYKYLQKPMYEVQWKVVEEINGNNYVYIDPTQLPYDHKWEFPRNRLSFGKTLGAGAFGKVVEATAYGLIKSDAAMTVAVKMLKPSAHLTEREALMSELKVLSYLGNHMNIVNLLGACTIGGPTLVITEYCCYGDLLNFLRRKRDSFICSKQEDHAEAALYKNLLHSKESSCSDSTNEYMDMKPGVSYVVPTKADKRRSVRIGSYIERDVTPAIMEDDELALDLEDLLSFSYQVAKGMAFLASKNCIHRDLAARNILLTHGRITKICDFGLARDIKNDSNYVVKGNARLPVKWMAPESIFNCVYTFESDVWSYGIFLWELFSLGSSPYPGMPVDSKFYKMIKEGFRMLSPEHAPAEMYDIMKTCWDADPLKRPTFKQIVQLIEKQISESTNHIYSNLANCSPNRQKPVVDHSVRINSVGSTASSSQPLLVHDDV
T1 sequence (P07333 20-972): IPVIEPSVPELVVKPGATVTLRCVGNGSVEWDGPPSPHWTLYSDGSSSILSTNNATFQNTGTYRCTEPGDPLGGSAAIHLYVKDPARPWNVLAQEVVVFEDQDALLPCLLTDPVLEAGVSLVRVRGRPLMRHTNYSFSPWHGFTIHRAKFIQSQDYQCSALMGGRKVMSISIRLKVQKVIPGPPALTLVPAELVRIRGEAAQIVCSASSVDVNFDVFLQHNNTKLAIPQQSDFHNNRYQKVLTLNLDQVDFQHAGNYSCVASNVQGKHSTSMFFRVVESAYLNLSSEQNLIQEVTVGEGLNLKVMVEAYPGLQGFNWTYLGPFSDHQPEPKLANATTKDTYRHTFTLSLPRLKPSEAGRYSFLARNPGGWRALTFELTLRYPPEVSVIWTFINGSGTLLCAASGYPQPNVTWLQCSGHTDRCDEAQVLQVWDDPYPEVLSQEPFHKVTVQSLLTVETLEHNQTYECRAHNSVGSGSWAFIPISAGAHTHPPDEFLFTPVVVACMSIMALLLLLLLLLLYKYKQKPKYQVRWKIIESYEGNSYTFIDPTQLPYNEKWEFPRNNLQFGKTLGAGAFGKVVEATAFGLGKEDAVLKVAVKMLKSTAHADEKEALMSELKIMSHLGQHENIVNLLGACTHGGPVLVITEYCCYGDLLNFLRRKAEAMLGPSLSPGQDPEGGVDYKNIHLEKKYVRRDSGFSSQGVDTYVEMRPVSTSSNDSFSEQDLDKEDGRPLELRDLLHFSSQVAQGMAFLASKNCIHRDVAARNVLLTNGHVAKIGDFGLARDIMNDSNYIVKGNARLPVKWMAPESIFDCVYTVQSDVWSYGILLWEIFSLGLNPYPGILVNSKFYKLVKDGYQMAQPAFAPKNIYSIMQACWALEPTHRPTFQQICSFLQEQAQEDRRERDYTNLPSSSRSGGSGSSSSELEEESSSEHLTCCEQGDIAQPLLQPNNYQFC

Regarding `O=C(Nc1ccc(-c2cnc(NCCN3CCOCC3)nc2)cc1)Nc1cc(C2(C(F)(F)F)CC2)on1` [Example 53, 1-{4-[2-(2-morpholin-4-yl-ethylamino)-pyrimidin-5-yl]-phenyl}-3-[5-(1-trifluoromethyl-cyclopropyl)-isoxazol-3-yl]urea], the Kd in test [1] was at most 10 nM; in test [3] it was at most 1 nM; in test [5], at most 1 nM. Further, in test [2], the “Kinase specificty: S(10)-359 panel” value is given as “B (0.1<B≦0.2 nM)”. The molecule further yielded an IC50 in test [4] of 1 to 10 nM.

Regarding `O=C(Nc1ccc(-c2cnc(NCCN3CCOCC3)nc2)cc1)Nc1cccc(C(F)(F)F)c1` [Example 54, 1-(4-(2-(2-morpholinoethylamino)pyrimidin-5-yl)phenyl)-3-(3-(trifluoromethyl)phenyl)urea], the figures for the equilibrium dissociation constant (Kd) in test [1], in test [3] and in test [5] were at most 10 nM, at most 1 nM and at most 1 nM, respectively. Besides, the “Kinase specificty: S(10)-359 panel” value in test [2] is recorded as “A (A≦0.1)”. The molecule further came in with an IC50 in test [4] of 10 to 100 nM.

For the molecule `Cc1ccc(F)c(NC(=O)Nc2ccc(-c3cnc(NCCN4CCOCC4)nc3)cc2)c1` [Example 55, 1-(2-fluoro-5-methylphenyl)-3-(4-(2-(2-morpholinoethylamino)pyrimidin-5-yl)phenyl)urea], the Kd in test [1] was at most 10 nM; in test [3], at most 1 nM; in test [5], 1 to 10 nM. For the same molecule, the “Kinase specificty: S(10)-359 panel” value in test [2] is “A (A≦0.1)”. The IC50 in test [4] is 100 to 500 nM.

For `CC(C)(C)c1cc(NC(=O)Nc2ccc(-c3cnc(CCCN4CCOCC4)nc3)cc2)no1` [Example 56, 1-(5-tert-butylisoxazol-3-yl)-3-(4-(2-(3-morpholinopropyl)pyrimidin-5-yl)phenyl)urea], the dissociation constant Kd in test [1] was at most 10 nM; in test [3] it was 1 to 10 nM; in test [5], at most 1 nM. Moreover, the “Kinase specificty: S(10)-359 panel” value in test [2] is “A (A≦0.1)”. The same molecule gave a half-inhibitory concentration (IC50) in test [4] of 10 to 100 nM.

As to `CN(C)CCNc1ncc(-c2ccc(NC(=O)Nc3cc(C(C)(C)C)on3)cc2)cn1` [Example 57, 1-(5-tert-butylisoxazol-3-yl)-3-(4-(2-(2-(dimethylamino)ethylamino)pyrimidin-5-yl)phenyl)urea], the equilibrium dissociation constant (Kd) in test [1] is at most 10 nM; in test [3] it was at most 1 nM; in test [5] it was at most 1 nM. Besides, the “Kinase specificty: S(10)-359 panel” value in test [2] is on record as “A (A≦0.1)”. Further, the half-maximal inhibitory concentration (IC50) in test [4] was in the range of 10 to 100 nM.

As for `COCCNc1ncc(-c2ccc(NC(=O)Nc3cc(C(C)(C)C)on3)cc2)cn1` [Example 58, 1-(5-tert-butylisoxazol-3-yl)-3-{4-[2-(2-methoxyethylamino)pyrimidin-5-yl]-phenyl}urea], the Kd in test [1] was at most 10 nM; in test [3], at most 1 nM; in test [5], at most 1 nM. The “Kinase specificty: S(10)-359 panel” value in test [2] is “B (0.1<B≦0.2 nM)”. The molecule also had a concentration for half-maximal inhibition (IC50) in test [4] of 1 to 10 nM.

With `CC(C)(C)c1cc(NC(=O)Nc2ccc(-c3cnc(NCCN4CCOCC4)nc3)cc2F)no1` [Example 59], the equilibrium dissociation constant (Kd) is at most 10 nM in test [1], at most 1 nM in test [3] and at most 1 nM in test [5]. Besides, the “Kinase specificty: S(10)-359 panel” value in test [2] is listed as “B (0.1<B≦0.2 nM)”. The IC50 in test [4] lay in the range of 1 to 10 nM.

As for `CC(C)(C)c1cc(NC(=O)Nc2ccc(-c3cnc(NCCN4CCCCC4)nc3)cc2)no1` [Example 60, 1-(5-tert-butylisoxazol-3-yl)-3-(4-(2-(2-(piperidin-1-yl)ethylamino)pyrimidin-5-yl)phenyl)urea], the Kd in test [1] was at most 10 nM; in test [3] it was 1 to 10 nM; in test [5], at most 1 nM. Moreover, in test [2], the “Kinase specificty: S(10)-359 panel” value is “B (0.1<B≦0.2 nM)”. The same molecule returned an IC50 in test [4] of 10 to 100 nM.

Turning to `CC(C)(C)c1cc(NC(=O)Nc2ccc(-c3cnc(NCCN4CCOCC4)nc3)cn2)no1` [Example 61, 1-(5-tert-butylisoxazol-3-yl)-3-{5-[2-(2-morpholin-4-yl-ethylamino)pyrimidin-5-yl]pyridin-2-yl}urea], the dissociation constant (Kd) is at most 10 nM in test [1], at most 1 nM in test [3] and at most 1 nM in test [5]. For the same molecule, the “Kinase specificty: S(10)-359 panel” value in test [2] is “A (A≦0.1)”. In addition, the IC50 in test [4] lay within 10 to 100 nM.

As to `CC(C)(C)Nc1ncc(-c2ccc(NC(=O)Nc3cc(C(C)(C)C)on3)nc2)cn1` [Example 62, 1-(5-(2-(tert-butylamino)pyrimidin-5-yl)pyridin-2-yl)-3-(5-tert-butylisoxazol-3-yl)urea], the Kd is 10 to 100 nM in test [1], 1 to 10 nM in test [3] and 1 to 10 nM in test [5]. The “Kinase specificty: S(10)-359 panel” value in test [2] is listed as “A (A≦0.1)”. This molecule registered an IC50 in test [4] of 100 to 500 nM.

Take `CC(C)(C)c1cc(NC(=O)Nc2ccc(-c3cnc(NC4CCOCC4)nc3)cn2)no1` [Example 63, 1-(5-tert-butylisoxazol-3-yl)-3-(5-(2-(tetrahydro-2H-pyran-4-ylamino)pyrimidin-5-yl)pyridin-2-yl)urea]: the dissociation constant (Kd) in test [1] is at most 10 nM; in test [3] it was at most 1 nM; in test [5] it was at most 1 nM. Also, in test [2], the “Kinase specificty: S(10)-359 panel” value is given as “B (0.1<B≦0.2 nM)”. The IC50 in test [4] was in the range of 10 to 100 nM.

As for `CC(C)(C)c1cc(NC(=O)Nc2ccc(-c3cnc(NC4CC4)nc3)cn2)no1` [Example 64, 1-(5-tert-butylisoxazol-3-yl)-3-[5-(2-cyclopropylaminopyrimidin-5-yl)-pyridin-2-yl]-urea], the Kd in test [1] was at most 10 nM; in test [3], at most 1 nM; in test [5], at most 1 nM. Besides, in test [2], the “Kinase specificty: S(10)-359 panel” value was “B (0.1<B≦0.2 nM)”. This molecule also registered an IC50 in test [4] of 10 to 100 nM.

For the molecule `CC(C)Nc1ncc(-c2ccc(NC(=O)Nc3cc(C(C)(C)C)on3)nc2)cn1` [Example 65, 1-(5-tert-butylisoxazol-3-yl)-3-(5-(2-(isopropylamino)pyrimidin-5-yl)pyridin-2-yl)urea], the values for the Kd in test [1], in test [3] and in test [5] were at most 10 nM, at most 1 nM and at most 1 nM, respectively. Further, in test [2], the “Kinase specificty: S(10)-359 panel” value is “B (0.1<B≦0.2 nM)”. In test [4], the IC50 is 10 to 100 nM.

Consider `O=C(Cc1cccc(C(F)(F)F)c1)Nc1ccc(-c2cnc(NC3CC3)nc2)cn1` [Example 66, N-(5-(2-(cyclopropylamino)pyrimidin-5-yl)pyridine-2-yl)-2-(3-(trifluoromethyl)phenyl)acetamide], for which the Kd in test [1] is at most 10 nM; in test [3], at most 1 nM; in test [5], 1 to 10 nM. In test [2], the “Kinase specificty: S(10)-359 panel” value is listed as “A (A≦0.1)”. This molecule had an IC50 in test [4] of 100 to 500 nM.

Take `CC(C)Nc1ncc(-c2ccc(NC(=O)Cc3cccc(C(F)(F)F)c3)nc2)cn1` [Example 67, N-(5-(2-(isopropylamino)pyrimidin-5-yl)pyridin-2-yl)-2-(3-(trifluoromethyl)phenyl)acetamide]: the Kd in test [1] is 10 to 100 nM; in test [3], at most 1 nM; in test [5] it was 1 to 10 nM. Moreover, in test [2], the “Kinase specificty: S(10)-359 panel” value is “A (A≦0.1)”. Further, the IC50 in test [4] lay in the range of 10 to 100 nM.

Regarding `Nc1ccc(-c2ccc(CC(=O)Nc3cc(C4(C(F)(F)F)CC4)on3)cc2)cn1` [Example 73, 2-(4-(6-aminopyridin-3-yl)phenyl)-N-(5-(1-(trifluoromethyl)cyclopropyl)isoxazol-3-yl)acetamide], the equilibrium dissociation constant (Kd) in test [1] was at most 10 nM; in test [3], 1 to 10 nM; in test [5], at most 1 nM. Besides, the “Kinase specificty: S(10)-386 panel” value in test [2] was “A (A≦0.1)”. The same molecule displayed a 50% inhibitory concentration (IC50) in test [4] of at most 1 nM.

As to `CC(C)(C)c1cc(NC(=O)Cc2ccc(-c3ccc(N)nc3)cc2F)no1` [Example 78, 2-(4-(6-aminopyridin-3-yl)-2-fluorophenyl)-N-(5-tert-butylisoxazol-3-yl)acetamide], the results for the Kd in test [1], in test [3] and in test [5] were at most 10 nM, 1 to 10 nM and at most 1 nM, respectively. Moreover, the “Kinase specificty: S(10)-386 panel” value in test [2] is “B (0.1<B≦0.2 nM)”. This molecule also had an IC50 in test [4] of at most 1 nM.
